Experimental data reported in patent publication US6608082B1, “Treatment of erectile dysfunction using isoquinoline compound melanocortin receptor ligands” (Lion Bioscience AG, priority 1998, dated 2003).

Columns and labels:
MCR-1 = molecular target: T1, MCR-1 (Homo sapiens, UniProt Q01726); assay: Melanocortin receptor binding assay, competition with 125I-HP 467, HEK 293 cells expressing hMCR-1; conditions: inhibition of binding of 125I-HP 467, HEK 293 cells expressing MCR-1, TRG 2414 library; for IC50: read-out: MC-1 IC50
T1 construct: expressed in transfected cells; host or cells: HEK 293
T1 sequence (Q01726 whole entry): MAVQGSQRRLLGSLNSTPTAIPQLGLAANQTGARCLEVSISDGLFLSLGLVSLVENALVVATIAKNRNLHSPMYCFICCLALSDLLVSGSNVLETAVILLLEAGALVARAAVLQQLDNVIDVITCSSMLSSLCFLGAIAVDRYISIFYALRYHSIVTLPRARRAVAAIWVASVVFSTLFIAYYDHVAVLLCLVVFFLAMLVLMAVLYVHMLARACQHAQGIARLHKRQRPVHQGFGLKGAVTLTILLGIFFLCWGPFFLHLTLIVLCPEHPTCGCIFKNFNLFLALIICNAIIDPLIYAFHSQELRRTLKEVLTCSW
Outline: (§1)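 Test compounds compete on intact HEK 293 cells carrying hMCR-1 (2×10^4 per tube) or hMCR-4 (4×10^3 per tube), suspended in PBS, 10% calf serum, 1 mM CaCl2.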

MCR-4 = molecular target: T2, MCR-4 (Homo sapiens, UniProt P32245); assay: Melanocortin receptor binding assay, competition with 125I-HP 467, HEK 293 cells expressing hMCR-4; conditions: inhibition of binding of 125I-HP 467, HEK 293 cells expressing MCR-4, TRG 2414 library; for IC50: read-out: MC-4 IC50
T2 construct: expressed in transfected cells; host or cells: HEK 293
T2 sequence (P32245 whole entry): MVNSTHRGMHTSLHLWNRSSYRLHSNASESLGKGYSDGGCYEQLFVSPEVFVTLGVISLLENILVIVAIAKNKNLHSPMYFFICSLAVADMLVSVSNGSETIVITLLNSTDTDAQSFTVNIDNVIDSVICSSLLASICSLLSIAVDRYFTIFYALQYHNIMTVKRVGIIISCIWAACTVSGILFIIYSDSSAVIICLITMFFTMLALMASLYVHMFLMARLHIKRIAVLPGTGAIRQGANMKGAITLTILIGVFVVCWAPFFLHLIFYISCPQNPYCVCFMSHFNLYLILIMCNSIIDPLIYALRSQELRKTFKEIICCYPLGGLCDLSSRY
Outline: as §1

| SMILES | IC50 (MCR-1) | IC50 (MCR-4) | MC-1 IC50 (MCR-1) | MC-4 IC50 (MCR-4) |
| --- | --- | --- | --- | --- |
| COc1cccc(CNCC2c3ccccc3CN(CCCCC(CN)NCC(C)c3ccc(CC(C)C)cc3)C2c2ccc(Cl)cc2Cl)c1 (centres unmarked) [TRG 2414-20] | 27.4 µM | 38.1 µM |  |  |
| COc1ccc(CNCC2c3ccccc3CN(CCCCC(N)CN)C2c2ccc(Cl)cc2Cl)cc1 (centres unmarked) [TRG 2414-21] | 1.12 µM | 1.57 µM |  |  |
| COc1ccc(CNCC2c3ccccc3CN(CCCCC(CN)NCCc3ccccc3)C2c2ccc(Cl)cc2Cl)cc1 (centres unmarked) [TRG 2414-22] | 3.56 µM | 5.02 µM |  |  |
| COc1ccc(CNCC2c3ccccc3CN(CCCCC(CN)NCc3ccccc3)C2c2ccc(Cl)cc2Cl)cc1 (centres unmarked) [TRG 2414-23] | 3.19 µM | 6.14 µM |  |  |
| COc1ccc(CNCC2c3ccccc3CN(CCCCC(CN)NCC(C)c3ccc(CC(C)C)cc3)C2c2ccc(Cl)cc2Cl)cc1 (centres unmarked) [TRG 2414-24] | 25.5 µM | 37.5 µM |  |  |
| COc1ccc(CCNCC2c3ccccc3CN(CCCC[C@H](N)CN)C2c2ccc(Cl)cc2Cl)cc1 (some centres unmarked) [TRG 2414-25] | 1.39 µM | 0.52 µM |  |  |
| COc1ccc(CCNCC2c3ccccc3CN(CCCCC(CN)NCc3ccccc3)C2c2ccc(Cl)cc2Cl)cc1 (centres unmarked) [TRG 2414-27] | 2.65 µM | 2.6 µM |  |  |
| COc1ccc(CCNCC2c3ccccc3CN(CCCCC(CN)NCC(C)c3ccc(CC(C)C)cc3)C2c2ccc(Cl)cc2Cl)cc1 (centres unmarked) [TRG 2414-28] | 13.9 µM | 7.42 µM |  |  |
| NCC(N)CCCCN1Cc2ccccc2C(CNCc2ccccc2)C1c1ccc(Cl)cc1Cl (centres unmarked) [TRG 2414-29] | 5.66 µM | 4.4 µM |  |  |
| NCC(CCCCN1Cc2ccccc2C(CNCc2ccccc2)C1c1ccc(Cl)cc1Cl)NCCc1ccccc1 (centres unmarked) [TRG 2414-30] | 5.39 µM | 6.21 µM |  |  |
| NCC(CCCCN1Cc2ccccc2C(CNCc2ccccc2)C1c1ccc(Cl)cc1Cl)NCc1ccccc1 (centres unmarked) [TRG 2414-31] | 3.9 µM | 7.03 µM |  |  |
| CC(C)Cc1ccc(C(C)CNC(CN)CCCCN2Cc3ccccc3C(CNCc3ccccc3)C2c2ccc(Cl)cc2Cl)cc1 (centres unmarked) [TRG 2414-32] | 28.3 µM | 32.1 µM |  |  |
| NCC(CCCCN1Cc2ccccc2C(CNC2CCCCCC2)C1c1ccc(Cl)cc1Cl)NCCc1ccccc1 (centres unmarked) [TRG 2414-34] | 3.55 µM | 4.42 µM |  |  |
| NCC(CCCCN1Cc2ccccc2C(CNC2CCCCCC2)C1c1ccc(Cl)cc1Cl)NCc1ccccc1 (centres unmarked) [TRG 2414-35] | 2.17 µM | 5.67 µM |  |  |
| CC(C)Cc1ccc(C(C)CNC(CN)CCCCN2Cc3ccccc3C(CNC3CCCCCC3)C2c2ccc(Cl)cc2Cl)cc1 (centres unmarked) [TRG 2414-36] | 8.65 µM | 9.92 µM |  |  |
| NCC(CCCCN1Cc2ccccc2C(CNC2CCCCC2)C1c1ccc(Cl)cc1Cl)NCCc1ccccc1 (centres unmarked) [TRG 2414-38] | 1.92 µM | 3.96 µM |  |  |
| CC(C)Cc1ccc(C(C)CNC(CN)CCCCN2Cc3ccccc3C(CNC3CCCCC3)C2c2ccc(Cl)cc2Cl)cc1 (centres unmarked) [TRG 2414-40] | 8.64 µM | 17.5 µM |  |  |
| NCC(N)CCCCN1Cc2ccccc2C(CNCc2ccccc2C(F)(F)F)C1c1cc(C(F)(F)F)cc(C(F)(F)F)c1 (centres unmarked) [TRG 2414-41] | 34.2 µM | 15.6 µM |  |  |
| NCC(CCCCN1Cc2ccccc2C(CNCc2ccccc2C(F)(F)F)C1c1cc(C(F)(F)F)cc(C(F)(F)F)c1)NCCc1ccccc1 (centres unmarked) [TRG 2414-42] | 32.8 µM | 30.2 µM |  |  |
| NCC(CCCCN1Cc2ccccc2C(CNCc2ccccc2C(F)(F)F)C1c1cc(C(F)(F)F)cc(C(F)(F)F)c1)NCc1ccccc1 (centres unmarked) [TRG 2414-43] | 56.9 µM | 42 µM |  |  |
| CC(C)Cc1ccc(C(C)CNC(CN)CCCCN2Cc3ccccc3C(CNCc3ccccc3C(F)(F)F)C2c2cc(C(F)(F)F)cc(C(F)(F)F)c2)cc1 (centres unmarked) [TRG 2414-44] |  |  | no fit | no fit |
| CCOc1ccccc1CNCC1c2ccccc2CN(CCCCC(N)CN)C1c1cc(C(F)(F)F)cc(C(F)(F)F)c1 (centres unmarked) [TRG 2414-45] | 6.34 µM | 0.92 µM |  |  |
| CCOc1ccccc1CNCC1c2ccccc2CN(CCCCC(CN)NCCc2ccccc2)C1c1cc(C(F)(F)F)cc(C(F)(F)F)c1 (centres unmarked) [TRG 2414-46] | 6.54 µM | 4.25 µM |  |  |
| CCOc1ccccc1CNCC1c2ccccc2CN(CCCCC(CN)NCc2ccccc2)C1c1cc(C(F)(F)F)cc(C(F)(F)F)c1 (centres unmarked) [TRG 2414-47] | 7.74 µM | 7.51 µM |  |  |
| CCOc1ccccc1CNCC1c2ccccc2CN(CCCCC(CN)NCC(C)c2ccc(CC(C)C)cc2)C1c1cc(C(F)(F)F)cc(C(F)(F)F)c1 (centres unmarked) [TRG 2414-48] | 33.5 µM | 38.8 µM |  |  |
| COc1ccccc1CCNCC1c2ccccc2CN(CCCC[C@H](N)CN)C1c1cc(C(F)(F)F)cc(C(F)(F)F)c1 (some centres unmarked) [TRG 2414-49] | 3.77 µM | 0.32 µM |  |  |
| COc1ccccc1CCNCC1c2ccccc2CN(CCCCC(CN)NCCc2ccccc2)C1c1cc(C(F)(F)F)cc(C(F)(F)F)c1 (centres unmarked) [TRG 2414-50] | 8.09 µM | 4.94 µM |  |  |
| COc1ccccc1CCNCC1c2ccccc2CN(CCCCC(CN)NCc2ccccc2)C1c1cc(C(F)(F)F)cc(C(F)(F)F)c1 (centres unmarked) [TRG 2414-51] | 6.45 µM | 2.16 µM |  |  |
